This note sets out measurements from patent US20060240048A1 (priority 2002, published 2006).

Each structure is given as a SMILES string.

This test addresses T1, human cannabinoid CB2 receptor (Homo sapiens, UniProt P34972).
T1 construct: expressed in transfected cells; host or cells: Saccharomyces cerevisiae strain MMY23
The test can be described thus: Cannabinoid CB2 receptor agonist activity, yeast reporter assay (FDGlu fluorescence).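 On Emax: 100% equals maximal response of reference agonist HU210.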 The test is classed as cell-based. The following applies: for Emax: read-out: efficacy value (Emax) at the cloned human cannabinoid CB2 receptor. The procedure: The cannabinoid CB2 receptor agonist activity of the compounds of formula (I) was determined in accordance with the following experimental method.
Yeast (Saccharomyces cerevisiae) cells expressing the human cannabinoid CB2 receptor were generated by integration of an expression cassette into the ura3 chromosomal locus of yeast strain MMY23. This cassette consisted of DNA sequence encoding the human CB2 receptor flanked by the yeast GPD promoter to the 5′ end of CB2 and a yeast transcriptional terminator sequence to the 3′ end of CB2. MMY23 expresses a yeast/mammalian chimeric G-protein alpha subunit in which the C-terminal 5 amino acids of Gpa1 are replaced with the C-terminal 5 amino acids of human Gαi3 (as described in Brown et al. (2000), Yeast 16:11-22). Cells were grown at 30° C. in liquid Synthetic Complete (SC) yeast media (Guthrie and Fink (1991), Methods in Enzymology, Vol. 194) lacking uracil, tryptophan, adenine and leucine to late logarithmic phase (approximately 6 OD600/ml).
Agonists were prepared as 10 mM stocks in DMSO. […] Agonist solutions in DMSO (1% final assay volume) were transferred into black, clear bottom, microtitre plates from NUNC (96- or 384-well). […] This mixture (50 ul per well for 384-well plates, 200 ul per well for 96-well plates) was added to agonist in the assay plates (Multidrop 384, Labsystems). After incubation at 30° C. for 24 hours, fluorescence resulting from degradation of FDGlu to fluorescein due to exoglucanase, an endogenous yeast enzyme produced during agonist-stimulated cell growth, was determined using a Spectrofluor microtitre plate reader (Tecan; excitation wavelength: 485 nm; emission wavelength: 535 nm). Fluorescence was plotted against compound concentration and iteratively curve fitted using a four parameter fit to generate a concentration effect value.
where Max[compound X] and Min[compound X] are the fitted maximum and minimum respectively from the concentration effect curve for compound X, and Max[HU210] and Min[HU210] are the fitted maximum and minimum respectively from the concentration effect curve for (6aR,10aR)-3-(1,1′-Dimethylheptyl)-6a,7,10,10a-tetrahydro-1-hydroxy-6,6-dimethyl-6H-dibenzo[b,d]pyran-9-methanol (HU210; available from Tocris). Equieffective molar ratio (EMR) values were calculated from the equation EMR=EC50 [compound X]/EC50 [HU210]
Where EC50 [compound X] is the EC50 of compound X and EC50 [HU210] is the EC50 of HU210.
Background: Reporter assays use an easily measured gene product as a stand-in for the process of interest.

T1 sequence (P34972 whole entry): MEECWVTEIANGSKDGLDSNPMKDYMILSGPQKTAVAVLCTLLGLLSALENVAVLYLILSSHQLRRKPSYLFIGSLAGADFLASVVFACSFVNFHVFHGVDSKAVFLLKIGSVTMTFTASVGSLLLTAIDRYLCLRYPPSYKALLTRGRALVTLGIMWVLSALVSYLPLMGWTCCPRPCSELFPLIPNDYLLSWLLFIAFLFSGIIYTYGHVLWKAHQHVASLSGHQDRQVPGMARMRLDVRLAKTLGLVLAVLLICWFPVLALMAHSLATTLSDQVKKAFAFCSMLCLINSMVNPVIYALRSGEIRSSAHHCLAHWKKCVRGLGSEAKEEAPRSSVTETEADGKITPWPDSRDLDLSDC

As usually defined, the EC50 is the midpoint of the concentration-response curve. High values mean lower potency in that assay, low ones higher potency in that assay. The term Emax denotes the greatest response seen or fitted, relative to the assay's reference. For `O=C(NCC1CCCCCC1)c1cnc(Nc2cccc(Br)c2)cc1C(F)(F)F` [Example 117, N-Cycloheptylmethyl-6-(3-bromophenylamino)-4-tri-fluoromethyl-nicotinamide], the EC50 was less than 300 nM and the maximal effect (Emax) is greater than 50%.
As to `COCCNC(=O)c1cnc(Nc2cccc(Cl)c2)cc1C(C)C` [Example 57, 6-(3-Chloro-phenylamino)-4-isopropyl-N-(2-methoxy-ethyl)-nicotinamide], the maximal response (Emax) is greater than 50%.
`Cc1cc(Cl)ccc1Nc1cc(C(C)C)c(C(=O)NCC2CCCC2)cn1` [Example 246, 6-(2-Methyl-4-chloro-phenylamino)-N-cyclopentylmethyl-4-isopropyl-nicotinamide]: the half-maximal effective concentration (EC50) was less than 300 nM and the Emax is greater than 50%.
The corresponding values for `O=C(NCC1CCCCC1)c1cnc(Nc2ccccc2)cc1C(F)(F)F` [Example 107, N-Cyclohexylmethyl-6-phenylamino-4-trifluoro-methyl-nicotinamide] are less than 300 nM and greater than 50%.
Regarding `CC(C)CNC(=O)c1cnc(Nc2ccc(Cl)c(Cl)c2)cc1C(C)C` [Example 270, 6-(3,4-Dichloro-phenylamino)-N-isobutyl-4-isopropyl-nicotinamide], the EC50 is less than 300 nM and the maximal effect (Emax) is greater than 50%.
As to `O=C(NCC1CCCCC1)c1cnc(Nc2cccc(F)c2)cc1C(F)(F)F` [Example 128, N-Cyclohexylmethyl-6-(3-fluoro-phenylamino)-4-tri-fluoromethyl-nicotinamide], the EC50 was less than 300 nM and the maximal response (Emax) is greater than 50%.
For `CC(C)c1cc(Nc2ccc(C(F)(F)F)cc2Cl)ncc1C(=O)NCC1CCC1` [Example 262, 6-(2-Chloro-4-trifluoromethyl-phenylamino)-N-cyclobutylmethyl-4-isopropyl-nicotinamide], the concentration giving a half-maximal response (EC50) was less than 300 nM and the maximal response (Emax) is greater than 50%.
For `CC(C)CNC(=O)c1cnc(Nc2cc(Cl)ccc2F)cc1C(C)C` [Example 276, 6-(5-Chloro-2-fluoro-phenylamino)-N-isobutyl-4-isopropyl-nicotinamide], the EC50 is less than 300 nM and the Emax was greater than 50%.
As to `CC(C)c1cc(Nc2cccc(Cl)c2)ncc1C(=O)NC1CCC1` [Example 50, 6-(3-Chloro-phenylamino)-N-cyclobutyl-4-isopropyl-nicotinamide], the EC50 is less than 300 nM and the Emax was greater than 50%.
For the molecule `O=C(NCC1CCCCC1)c1cnc(Nc2cccc(Br)c2)cc1C(F)(F)F` [Example 116, N-Cyclohexylmethyl-6-(3-bromophenylamino)-4-tri-fluoromethyl-nicotinamide], the EC50 was less than 300 nM and the maximum response (Emax) was greater than 50%.
For the molecule `CC(C)c1cc(Nc2ccc(F)c(Cl)c2)ncc1C(=O)NCC1CCC1` [Example 254, 6-(3-Chloro-4-fluoro-phenylamino)-N-cyclobutylmethyl-4-isopropyl-nicotinamide], the EC50 was less than 300 nM and the Emax was greater than 50%.
The corresponding values for `O=C(NCC1CCCCC1)c1cnc(Nc2cc(Cl)cc(Cl)c2)cc1C(F)(F)F` [Example 146, N-Cyclohexylmethyl-6-(3,5-dichloro-phenytamino)-4-tri-fluoromethyl-nicotinamide] are less than 300 nM and greater than 50%.
For `CC(C)c1cc(Nc2cccc(F)c2)ncc1C(=O)NCC1CCOCC1` [Example 39, 6-(3-Fluoro-phenylamino)-4-isopropyl-N-(tetrahydro-pyran-4-ylmethyl)-nicotinamide], the maximal effect (Emax) was greater than 50%.
As for `CC(C)c1cc(Nc2cccc(Cl)c2)ncc1C(=O)N1CCCCC1` [Example 55, 1-[6-(3-Chloro-phenylamino)-4-isopropyl-pyridin-3-yl]-1-piperidin-1-yl-methanone], the EC50 is less than 300 nM and the Emax is greater than 50%.
As to `O=C(NCC1CCC1)c1cnc(Nc2ccc(F)cc2F)cc1C(F)(F)F` [Example 166, N-Cyclobutylmethyl-6-(2,4-difluoro-phenylamino)-4-tri-fluoromethyl-nicotinamide], the EC50 was less than 300 nM and the Emax is greater than 50%.
Take `CC(C)c1cc(Nc2ccc(Br)c(C(F)(F)F)c2)ncc1C(=O)NCC1CCOCC1` [Example 294, 6-(4-Bromo-3-trifluoromethyl-phenylamino)-4-isopropyl-N-(tetrahydropyran-4-ylmethyl)-nicotinamide]: the maximal response (Emax) was greater than 50%.
`O=C(NCC1CCCC1)c1cnc(Nc2ccccc2)cc1C(F)(F)F` [Example 108, N-Cyclopentylmethyl-6-phenylamino-4-trifluoro-methyl-nicotinamide]: the EC50 was less than 300 nM and the Emax is greater than 50%.
For `CC(C)c1cc(Nc2cc(Cl)ccc2C#N)ncc1C(=O)NCC1CCOCC1` [Example 221, 6-(S-Chloro-2-cyano-phenylamino)-4-isopropyl-N-(tetrahydro-pyran-4-ylmethyl)-nicotinamide], the 50% effective concentration (EC50) fell in the range of 300 to 1000 nM and the Emax was less than 30%.
Regarding `CC(C)(C)c1cc(Nc2cccc(F)c2)ncc1C(=O)NCC1CCOCC1` [Example 72, 4-tert-Butyl-6-(3-fluoro-phenylamino)-N-(tetrahydro-pyran-4-ylmethyl)-nicotinamide], the EC50 was less than 300 nM and the maximum response (Emax) is greater than 50%.
Turning to `CC(C)c1cc(Nc2ccc(Br)c(Br)c2)ncc1C(=O)NCC1CCOCC1` [Example 296, 6-(3,4-Dibromo-phenylamino)-4-isopropyl-N-(tetrahydropyran-4-ylmethyl)-nicotinamide], the EC50 is less than 300 nM and the Emax is greater than 50%.
For the molecule `CC(C)c1cc(Nc2ccc(Cl)cc2Br)ncc1C(=O)NCC1CCOCC1` [Example 83, 6-(2-Bromo-4-chloro-phenylamino)-4-isopropyl-N-(tetrahydro-pyran-4-ylmethyl) nicotinamide], the concentration for a half-maximal effect (EC50) was less than 300 nM and the Emax was greater than 50%.
For the molecule `Cc1c(Nc2cc(C(C)C)c(C(=O)NCC3CCOCC3)cn2)cccc1C(F)(F)F` [Example 84, 4-lsopropyl-6-(2-methyl-3-trifluoromethyl-phenylamino)-N-(tetrahydro-pyran-4-ylmethyl)-nicotinamide], the EC50 is less than 300 nM and the Emax was greater than 50%.
Turning to `CC(C)c1cc(Nc2ccc(C#N)cc2Cl)ncc1C(=O)NCC1CCCC1` [Example 30, 6-(2-Chloro-4-cyano-phenylamino)-N-cyclopentylmethyl-4-isopropyl-nicotinamide], the EC50 was less than 300 nM and the maximal effect (Emax) was greater than 50%.
Regarding `CC(C)c1cc(Nc2ccc(OC(F)(F)F)c(Cl)c2)ncc1C(=O)NCC1CCOCC1` [Example 78, 6-(3-Chloro-4-trifluoromethoxy-phenylamino)-4-isopropyl-N-(tetrahydro-pyran-4-ylmethyl)-nicotinamide], the EC50 was less than 300 nM and the maximum response (Emax) was greater than 50%.
For the molecule `CC(C)c1cc(Nc2cccc(C(F)(F)F)c2)ncc1C(=O)NCC1CCC1` [Example 35, N-Cyclobutylmethyl-6-(3-trifluoromethyl-phenylamino)-4-], the 50% effective concentration (EC50) was less than 300 nM and the Emax is greater than 50%.
As to `CC(C)c1cc(Nc2cccc(C#N)c2)ncc1C(=O)NCC1CCCC1` [Example 28, 6-(3-Cyano-phenylamino)-N-cyclopentylmethyl-4-isopropyl-nicotinamide], the half-maximal effective concentration (EC50) was less than 300 nM and the Emax was greater than 50%.
